Columns and labels:
PputG6PDH-1 [1] = target: T1, PputG6PDH-1 (Pseudomonas putida, UniProt Q88P31); assay: progress curves at […] nm, product inhibition, global fit; format: biochemical
T1 sequence (Q88P31 1-489): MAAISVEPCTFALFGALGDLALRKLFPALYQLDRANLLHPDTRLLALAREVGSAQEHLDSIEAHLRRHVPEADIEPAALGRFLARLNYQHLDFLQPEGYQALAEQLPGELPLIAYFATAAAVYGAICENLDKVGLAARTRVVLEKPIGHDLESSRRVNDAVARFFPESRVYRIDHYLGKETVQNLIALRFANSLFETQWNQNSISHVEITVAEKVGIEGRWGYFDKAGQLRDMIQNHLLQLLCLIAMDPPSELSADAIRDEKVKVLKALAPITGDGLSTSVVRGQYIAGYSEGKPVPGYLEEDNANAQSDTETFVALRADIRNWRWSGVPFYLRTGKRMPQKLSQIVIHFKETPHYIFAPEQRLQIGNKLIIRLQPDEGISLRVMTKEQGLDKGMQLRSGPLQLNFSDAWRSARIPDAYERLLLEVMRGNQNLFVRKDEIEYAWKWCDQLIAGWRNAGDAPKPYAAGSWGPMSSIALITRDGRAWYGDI

PputG6PDH-1 [2] = target: T1, PputG6PDH-1; assay: initial rates, NAD; format: biochemical

| Compound | Ki (PputG6PDH-1 [1]) [µM] | Ki (PputG6PDH-1 [2]) [µM] |
| --- | --- | --- |
| NC(=O)C1=CN([C@@H]2O[C@H](COP(=O)(O)OP(=O)(O)OC[C@H]3O[C@@H](n4cnc5c(N)ncnc54)[C@H](O)[C@@H]3O)[C@@H](O)[C@H]2O)C=CC1 [NADH] | 480 ± 7 |  |
| NC(=O)C1=CN([C@@H]2O[C@H](COP(=O)(O)OP(=O)(O)OC[C@H]3O[C@@H](n4cnc5c(N)ncnc54)[C@H](OP(=O)(O)O)[C@@H]3O)[C@@H](O)[C@H]2O)C=CC1 [NADPH] |  | 18 ± 3 |
